# Reference: patent US7476681B2, “17β-hydroxysteroid dehydrogenase type 3 inhibitors for the treatment of androgen dependent diseases” (Schering Corporation, priority 2002, dated 2009)
smiles,measurement,value
CC(=O)NCCN(C(=O)N1CCN(C(c2ccccc2)c2ccccc2)C[C@@H]1C(C)C)C1CCN(C(C)=O)CC1 [Example 16],melting point,90 to 92 °C
